Test: Human HepG2 cell viability assay in 384 well format
Format: toxicity, cell-based
Design: dose 125 nL, time 70.5 hour; concentration not given beside the values
Conditions: HepG2 cells, read-out: Inhibition

| Structure (SMILES) | cytotoxicity at 70.5 h [%] |
| --- | --- |
| COc1cccc(OCCNCc2ccccc2)c1 | -7.2 |
| CC(C)c1nccn1C(C)C(=O)N1CCN(c2cnccn2)CC1 (configuration not stated) | -11.1 |
| CCc1nnc(CN(C)c2nccc(CCC(F)(F)F)n2)o1 | -9.32 |
| COc1ccc(CNC2CCCc3nc(N(C)C)ncc32)c(OC)c1 (configuration not stated) | -8.28 |
| Cc1cccnc1CN(C)C(C(=O)O)c1ccc(-c2ccn[nH]2)cc1 (configuration not stated) | -3.62 |
| COc1cnc(CN2CCN(CC(C)C)C(=O)C2C)cc1O (configuration not stated) | 0.0157 |
| COCC(=O)N(Cc1cccc(C)c1)Cc1ccccc1OC | -4.3 |
| Cc1cc(C2CCC2)nc(NCC(C)(C)N2CCOCC2)n1 | 15.4 |
| COc1coc(CN2CCCC3(CCC(=O)N(C4CC4)C3)C2)cc1=O (configuration not stated) | -12.4 |
| Cc1[nH]c2ccc(CNc3cc(C#N)ccn3)cc2c1C | -4.75 |
| CC(C)Cn1cncc1CNC(=O)c1cccc(Cn2cccn2)c1 | -5.12 |
| Cc1nn(CCN2CCSCC2)cc1CNCC1CC1 | -14.6 |
| CO[C@H]1CN(Cc2cc(Cn3cncn3)c(C)cc2C)CC[C@H]1N | 6.57 |
| O=C1CC2(CCCC2)CN1CCOc1ccc(F)cc1 | -9.74 |
| Cc1ncc(C)c(N2Cc3cnn(Cc4ccc(F)cc4)c3C2)n1 | 13 |
| Cn1ncc(N2CCC(CNC(=O)[C@@H](N)c3ccccc3)CC2)cc1=O | -4.64 |
| C=C(C)COc1cccc(CN(CC)Cc2noc(C)n2)c1 | -0.0989 |
| N[C@@H]1CCN(Cc2cccc(N3CCOCC3)c2)C[C@H]1O | 26.8 |
| CCCn1cc(C(=O)NC2CCN(CC(=O)NC3CC3)CC2)c(C)n1 | 0.264 |
| CCNc1ncc(C2CC(=O)Nc3c2cnn3Cc2ccncc2)cn1 (configuration not stated) | 5.87 |
| Cc1nc(CNCc2cccc(OC34CCCN(CC3)C4)c2)n[nH]1 (configuration not stated) | -3.22 |
| Cc1nc2c(c(NCCc3nc(C)c(Cl)s3)n1)CCNCC2 | -11 |
| O=C1N(Cc2ccc(F)c(F)c2)CCCC12CCN(C1CCCC1)C2 (configuration not stated) | -2.62 |

| Structure (SMILES) | cytotoxicity at 70.5 h [%] |
| --- | --- |
| CCc1ccc(CNC[C@H]2C[C@@H](CO)N(C)[C@H]2c2ccccc2F)o1 | -2.04 |
| Cc1c(C)c(C)c2[nH]c(-c3cn(C4CCNCC4)nn3)nc2c1C | -5.74 |
| CCc1cc(NCCNc2ccncc2C)n2nc(C)c(C)c2n1 | -1.4 |
| Cc1cc(C)n2ncc(CN3CCC(Cn4cc(CO)nn4)CC3)c2n1 | 0.595 |
| CNC(=O)Cc1ccc(-n2ccnc2-c2cccc(C(=O)O)c2)cc1 | 17.5 |
| CN1CCC(N(CCc2ccccc2)Cc2noc(C3CC3)n2)CC1 | -12.8 |
| Nc1cnc(-c2ccc(F)cc2Cl)cn1 | 10.8 |
| CN1CCC(N(C)CCC(=O)N2CCN(Cc3cccc(F)c3)CC2)C1 (configuration not stated) | -0.236 |
| C=C(C)COc1ccccc1CN1CCC(C(=O)NCC)C1 (configuration not stated) | -7.01 |
| NCC1CCN(c2cnn(CCCn3cccn3)c(=O)c2)CC1 | -8.18 |
| CNC(=O)[C@@H]1C[C@H](N)CN1Cc1cc2cc(OC)ccc2nc1O | -8.56 |
| Cn1c(CCNC(=O)CC[C@@H]2CCCN3CCCC[C@H]23)n[nH]c1=O | -14.7 |
| Cc1cccc(CN2CCCC(O)(CNCc3cccc(F)c3)C2=O)c1 (configuration not stated) | -5.44 |
| CS(=O)(=O)c1ccc(-c2cc(O)cc(CCC3CCCCN3)c2)cc1 (configuration not stated) | -7.28 |
| CS(=O)(=O)N[C@H]1CN(C(=O)CCc2ccco2)C[C@@H]1C1CC1 | 19.3 |
| CC1(c2ccccc2)CCCN(Cc2nnc(-c3cccnc3)o2)C1 (configuration not stated) | -3.27 |
| Cc1cccc(C(C(=O)NCCCc2ccccn2)N(C)C)c1 (configuration not stated) | 21.2 |
| O=C(CCCn1cncn1)N1CCC2(CCCN(C3CCCC3)C2=O)C1 (configuration not stated) | -4.98 |
| CSc1nccc(N2CCC(NCc3ccc4nsnc4c3)CC2)n1 | 23.1 |
| CC(=O)Nc1ccc2nc(CN(C)Cc3snnc3C)ccc2c1 | -9.42 |
| Cc1cccc(C(=O)N2CCN(S(C)(=O)=O)[C@@H]3CS(=O)(=O)C[C@@H]32)n1 | -7.33 |
| CCC(NC(=O)c1cnc(-c2cccnc2)nc1)c1ccnn1C (configuration not stated) | 32.1 |
| CSc1ccccc1C(=O)N1CCOC(CCN(C)C)C1 (configuration not stated) | -15.3 |

| Structure (SMILES) | cytotoxicity at 70.5 h [%] |
| --- | --- |
| Nc1nc(N2CCCC(COc3ccc(F)cc3)C2)c2nc[nH]c2n1 (configuration not stated) | -7.35 |
| CC(C)C[C@H](NCc1cc(O)c2cccc(F)c2n1)C(N)=O | -11.8 |
| Cn1cccc1-c1cc(C(=O)N2CCCC2C(F)(F)F)[nH]n1 (configuration not stated) | -5.87 |
| COCc1noc(Cn2c(C)cc(C(F)(F)F)cc2=O)n1 | -10.7 |
| CCNC(=O)c1ccnc(CC2COc3c(cccc3OC)C2)c1 (configuration not stated) | -38.4 |
| Cc1ccc(C(C(=O)O)N2CCCN(Cc3ccccn3)CC2)c(F)c1 (configuration not stated) | -4.69 |
| CN1CCCC2(CCN(S(=O)(=O)c3ccc(-c4cnco4)s3)C2)C1=O (configuration not stated) | -7.66 |
| O=C(NCCN1CCOCC1)c1cc(COc2ccccc2F)[nH]n1 | 0.766 |
| COc1ccc(CCN(C)C(=O)CN2C(=O)OC[C@@H]2C(C)C)cc1OC | -4.47 |
| Cc1cccc(-c2ncc(CNC(C)Cc3ccncc3)cn2)c1 (configuration not stated) | -3.63 |
| CCn1nc(CC(C)C)cc1C(=O)N1CCC(n2cnnc2)CC1 | 8.59 |
| CC(C)[C@@H]1CN(Cc2cnc(C3CCCCC3)nc2)C[C@H]1C(=O)O | 8.1 |
| Cc1cc(N(C)Cc2snnc2C)nc(-c2cccnc2)n1 | -12.5 |
| Cc1ccc2nc(-c3nc4c([nH]3)CC(C)(C)CNC4=O)cn2c1 | 7.51 |
| CCn1cc(CN2C[C@H]3CC[C@@H]2CN(C(=O)c2ccncc2)C3)cn1 | 21 |
| CC(C)[C@H]1CN(C(=O)CC2CCC2)C[C@@H]1N(C)C | 18.9 |
| CCN1CCN(C[C@H]2CC[C@@H](Cc3ccc4c(c3)OCO4)O2)CC1 | -5.47 |
| Cn1cncc1C(=O)N1CCCC(c2ccn[nH]2)C1 (configuration not stated) | -16.9 |
| CCCn1ncc(C2CC(=O)NCc3nc4sc(C)cn4c32)c1C (configuration not stated) | -3.1 |
| COc1cccc2c(=O)n(Cc3cccnc3)cnc12 | -6.26 |
| Cc1cc(C)c2nc(CN3C[C@H](CCO)[C@@H](N)C3)cc(O)c2c1 | -4.09 |
| CC(=O)N1CCN(C(=O)Nc2ccc(Cl)cc2)[C@H]2CS(=O)(=O)C[C@H]21 | -2.86 |
| Cc1cc(N2CCOC(CN)C2)nc(-c2ccccc2)n1 (configuration not stated) | -10.8 |

| Structure (SMILES) | cytotoxicity at 70.5 h [%] |
| --- | --- |
| CC(=O)N[C@@H]1CN(Cc2nccn2C)C[C@H]1c1ccc(C)cc1 | 22.6 |
| Cc1ccc2c(c1)c(CNC(=O)C1CCCN(CC(N)=O)C1)nn2C (configuration not stated) | -10.2 |
| C[C@@H]1CN(c2cccnn2)CC[C@@]1(O)C1CCOCC1 | -4.49 |
| Cc1cc(C)n(CC(=O)N2CCCCC2CCN2CCCC2=O)c(=O)n1 (configuration not stated) | -12.3 |
| CCNC(=O)N1CCC(Nc2nccc(NCC)n2)CC1 | -11.4 |
| Cc1c(C(C)N)cnn1-c1cccc2ccccc12 (configuration not stated) | -5.48 |
| CCc1cc(NC2CCN(CC(N)=O)CC2)nc(N2CCCCC2)n1 | -2.44 |
| CC(C)N1CCC(C(=O)N2CCC(c3ccc(F)cc3)C2)CC1 (configuration not stated) | -20.4 |
| CN(C)C(=O)N1CCCn2nc(CNC(=O)CCc3ccsc3)cc2C1 | -9.25 |
| CCOC(=O)CC1CCCCN1C(=O)CCc1cc(Cl)no1 (configuration not stated) | -1.88 |
| N#Cc1c(N)nc2c(c1C1CCOC1)CCc1cc(O)ccc1-2 (configuration not stated) | -11.5 |
| Cc1nc(O)cc(C2CCCN(C(=O)CN(C)c3ccccc3)C2)n1 (configuration not stated) | 1.65 |
| COc1ccccc1OC1(C(=O)O)CCN(c2cnccn2)CC1 | 47.4 |
| Cc1nn(C)cc1-c1ccnc(N(C)Cc2ccoc2)n1 | -3.89 |
| CCOC(=O)N1CCN(C(=O)C(C)n2ccnc2C(C)C)CC1 (configuration not stated) | 8.16 |
| Cc1cc(C)c(-c2nc(-c3c(C)ncc4c3CCNC4)no2)o1 | -11.5 |
| CCc1cc(N2CCNCC2)n2nc(C)c(C)c2n1 | -3.36 |
| COc1ccc(CN2C[C@@H](CN(C)C)[C@@H](CO)C2)cc1OC | -3.1 |
| CS(=O)(=O)N1CCC(Oc2ccc(C(=O)NC3CCOC3)cc2Cl)CC1 (configuration not stated) | -7.64 |
| COc1cccc(OCC(=O)NCc2ccc3[nH]c(=O)[nH]c3c2)c1 | -13.7 |
| NC1CCCN(C(=O)c2csc(-c3ccc(C(F)(F)F)cc3)n2)CC1 (configuration not stated) | 36.2 |
| Cc1ccc(NCCCc2c(C)noc2C)nn1 | -6.84 |
| CN(C)C(=O)c1noc2c1CN(C(=O)CCC1CCCCN1C)CC2 (configuration not stated) | -4.32 |

| Structure (SMILES) | cytotoxicity at 70.5 h [%] |
| --- | --- |
| COCCN(Cc1ccc(OC)nc1)Cc1cccs1 | 29.6 |
| CCC(C)N(Cc1ccncc1)C(=O)CCC(=O)OC (configuration not stated) | 4.04 |
| COc1ccc(-c2cc[nH]n2)cc1CNC1CCCC1 | -7.14 |
| O=C(CCn1cncn1)N1CC[C@@H](c2ccc3ccccc3c2)[C@H](O)C1 | -10.5 |
| Cc1nc[nH]c1-c1nccn1-c1ccc(C(N)=O)c(N2CCCC2)c1 | 20.6 |
| Cc1nnc(CNCC2(O)CCCN(Cc3ccc(F)c(F)c3)C2=O)[nH]1 (configuration not stated) | -0.578 |
| Cc1ccccc1C(C(=O)NCCSC(F)(F)F)N(C)C (configuration not stated) | -11.1 |
| Cc1ccnc(CC(C)N(C)c2cc(CCN)nc(C)n2)c1 (configuration not stated) | -6.01 |
| O=C(CCc1nc(Cl)n[nH]1)NC1CCCN(CC2CCCCC2)C1 (configuration not stated) | 0.564 |
| CCN(Cc1cc(Cl)ccc1OC)Cc1cc(C)nn1C | 2.1 |
| O=C(O)CC1COCCN1Cc1ccccc1OCCc1ccccc1 (configuration not stated) | -3.62 |
| CC(=O)N1CCCCC1c1ncnn1-c1ccc2nc(C)sc2c1 (configuration not stated) | -4.05 |
| Cc1nc(CC(=O)N(CCN2CCOCC2)Cc2ccco2)c(C)s1 | -4.1 |
| CCOc1ncccc1C(=O)N1CCN(C)C2(CCN(C)CC2)C1 | 4.53 |
| N[C@H]1CN(S(=O)(=O)N2CCCC2)C[C@@H]1c1ccccc1 | -4.68 |
| CCc1ccc2nc(C)cc(C(=O)N[C@@H]3CCCNC3)c2c1 | 2.34 |
| Cc1nc(O)cc(CCNC(=O)C2CC(=O)N(CC(C)C)C2)n1 (configuration not stated) | -8.39 |
| Cc1cccc2[nH]c(C3CCN(C(=O)c4cnc(O)cc4O)CC3)nc12 | 22.7 |
| COc1ccc([C@@H]2CN(Cc3cccnc3N)C[C@H]2NC(C)=O)cc1 | -8.12 |
| CCOCC(=O)N1CCC(c2nccn2CC2CC2)CC1 | 1.15 |
